In publication PMC7501296, “Rapid and direct control of target protein levels with VHL-recruiting dTAG molecules” (Nature Communications, 2020):
Where “and” joins values, the source holds several entries; their conditions need not be identical. Equal entries are not always repeated.

Tests used:
[1] = biological target: T1, luciferase-FKBP12^F36V (Homo sapiens, UniProt P62942, F37V); assay: Pharmacodynamic evaluation: bioluminescence of MV4;11 luc-FKBP12F36V cells in mice; format: in vivo, mice (NSG); parameters: Total flux for each mouse: unit not given here; conditions: for Total flux for each mouse: single mice
T1 construct: luciferase (fusion partner); expressed in transfected cells; host or cells: MV4;11 cells transplanted into NSG mice
T1 sequence (P62942 2-108 F37V limits assumed): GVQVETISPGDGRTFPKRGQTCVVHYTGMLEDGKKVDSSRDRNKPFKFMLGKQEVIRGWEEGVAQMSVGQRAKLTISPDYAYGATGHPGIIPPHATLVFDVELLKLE
From the text: For IP injections, dTAG-13 and dTAG^V-1 were formulated by dissolving into DMSO and then diluting with 20% solutol (Sigma): 0.9% sterile saline (Moltox) (w:v) with the final formulation containing 5% DMSO. […] Formulations were stable at room temperature for 7 days. For IV injections, dTAG-13 and dTAG^V-1 were formulated by dissolving into DMSO and then diluting with 5% solutol (Sigma): 0.9% sterile saline (Moltox) (w:v) with the final formulation containing 5% DMSO.
All procedures for PD studies were compliant with ethical regulations for animal testing and research, and were approved by and performed in accordance with standards of the IACUC at Dana–Farber Cancer Institute. Housing conditions for mice at Dana–Farber Cancer Institute were as follows: lights on = 6 AM, lights off = 6 PM, average ambient temperature = 72 °F, and average humidity = 35–55%. Evaluation of degradation of luciferase in vivo was performed using MV4;11 luc-FKBP12^F36V cells and bioluminescent measurements[6],[48]. In brief, 250,000 viable MV4;11 luc-FKBP12^F36V cells were transplanted by tail-vein injection in 8-week-old immunocompromised female mice (NOD.Cg-Prkdc^scidIl2rg^tm1Wjl/SzJ, NSG; Jackson Laboratory, #005557). Bioluminescent measurements were performed following IP injection of 75 mg kg^−1 D-Luciferin (Promega). Mice were then anesthetized with 2−3% isoflurane, imaged on an IVIS Spectrum (Caliper Life Sciences), and total body bioluminescence was determined using a standardized region of interest. Two and seven days after tail-vein injection, bioluminescent measurements were performed to confirm engraftment. […] For treatments, compounds were formulated as described above, administered via IP injection and bioluminescent measurements were performed daily as described in Fig. 2d, beginning 8 days after tail-vein injection.

[2] = biological target: T2, FKBP12^F36V-KRAS^G12V (Homo sapiens, UniProt P01116+P62942, F37V/G12V); assay: Immunoblot of PATU-8902 FKBP12F36V-KRASG12V; KRAS-/- clone; format: cell-based; conditions: time-course
T2 construct: KRAS G12V (fusion partner, same polypeptide); expressed in transfected cells
T2 sequence (P62942+P01116 fused P62942:F37V/P01116:G12V): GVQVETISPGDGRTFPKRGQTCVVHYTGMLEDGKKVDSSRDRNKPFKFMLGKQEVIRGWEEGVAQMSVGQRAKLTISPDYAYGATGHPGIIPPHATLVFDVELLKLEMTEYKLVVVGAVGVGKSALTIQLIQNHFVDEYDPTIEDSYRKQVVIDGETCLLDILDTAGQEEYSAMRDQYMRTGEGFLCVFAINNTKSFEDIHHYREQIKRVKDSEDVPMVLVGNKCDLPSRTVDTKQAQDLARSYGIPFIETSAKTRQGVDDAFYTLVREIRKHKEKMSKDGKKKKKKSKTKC
Protocol: PATU-8902 LACZ-FKBP12^F36V and FKBP12^F36V-KRAS^G12V; KRAS^−/− cells and 293T cells were lysed with RIPA buffer supplemented with cOmplete protease inhibitors (Roche), PhosSTOP phosphatase inhibitors (Roche), and 0.1% benzonase (Novagen). Proteins were separated using NuPAGE Bolt^TM Bis–Tris gels (Thermo Fisher Scientific) and transferred to nitrocellulose membranes, which were blocked with Odyssey Blocking Buffer (LI-COR) and incubated with primary antibodies overnight. Membranes were washed three times with TBS-T, incubated with the appropriate fluorescently labeled infrared secondary antibodies, washed again three times with TBS-T, and assessed using an Odyssey CLx Imager (LI-COR)[6],[15]. EWS502 cells were lysed with Cell Lysis Buffer (Cell Signaling Technology) supplemented with cOmplete protease inhibitors (Roche). Proteins were separated using SDS-PAGE gels and transferred to PVDF membranes, which were blocked with 5% milk in TBS-T and incubated with primary antibodies overnight. Membranes were washed five times with TBS-T, incubated with the appropriate horseradish peroxidase-conjugated secondary antibodies, washed again five times with TBS-T, and imaged. The following primary antibodies were employed in this study: HA (Cell Signaling Technology #3724 and #2367, dilution at 1:1000), phospho-ERK1/2 T202/Y204 (Cell Signaling Technology #4370, dilution at 1:1000), ERK1/2 (Cell Signaling Technology #4696, dilution at 1:1000), phospho-AKT S473 (Cell Signaling Technology #4060, dilution at 1:1000), AKT (Cell Signaling Technology #2920, dilution at 1:1000), FKBP12 (Abcam #ab24373, dilution at 1:1000), GFP (Cell Signaling Technology #2555, dilution at 1:1000), FLI (Abcam #ab15289, dilution at 1:2000), NKX2-2 (Abcam #ab187375, dilution at 1:1000), GAPDH (Cell Signaling Technology #2118, dilution at 1:3000), Vinculin (Cell Signaling Technology #13901, dilution at 1:3000), β-Actin (Cell Signaling Technology #58169, dilution at 1:3000), and α-Tubulin (Cell Signaling Technology #3873, dilution at 1:5000). Species-specific fluorescently labeled infrared secondary antibodies including IRDye 680LT anti-Mouse IgG (LI-COR #926-68020, dilution at 1:5000), IRDye 800CW anti-Mouse IgG (LI-COR #926-32210, dilution at 1:5000), IRDye 680LT anti-Rabbit IgG (LI-COR #926-68021, dilution at 1:5000), and IRDye 800CW anti-Rabbit IgG (LI-COR #926-32211, dilution at 1:5000) and peroxidase-linked secondary antibodies including anti-Mouse IgG (Thermo Fisher Scientific #45000680, dilution at 1:5000) and anti-Rabbit IgG (Thermo Fisher Scientific #45000682, dilution at 1:5000) were employed as appropriate.

[3] = test system: EWS502 FKBP12^F36V-EWS/FLI; EWS/FLI^−/− cells; assay: Relative growth of EWS502 FKBP12F36V-EWS/FLI; EWS/FLI-/- cells (CellTiter-Glo); format: cell-based; conditions: for Relative growth (luminescence values relative to day 0): EWS502 FKBP12F36V-EWS/FLI, EWS/FLI-/-; for Antiproliferation (relative growth): replicate values; for Antiproliferative effects upon EWS/FLI degradation: longer time-points
Protocol: Cell viability was assayed in 2D-adherent or ultra-low adherent 3D-spheroids using CellTiter-Glo (Promega)[6],[15]. Luminescence was measured on an Envision 2104 plate reader (PerkinElmer) and Fluostar Omega Reader (BMG Labtech) and data was analyzed using GraphPad PRISM v8. Synergy assessments were performed using CellTiter-Glo (Promega) with the following modifications to the protocol described in the ref. [34]. In brief, EWS502 cells were plated at 1000 cells per well in 50 µL of appropriate media in 384-well white culture plates (Corning) allowed to adhere overnight, and 100 nL of compounds were added using a Janus Workstation pin tool (PerkinElmer) for 72 h. Cell viability was measured by addition of 10 µL of CellTiter-glo (Promega), followed by incubation for 15 minutes at room temperature. Luminescence was measured on an Envision 2104 plate reader (PerkinElmer) and data was analyzed using GraphPad PRISM v8.

[4] = Baseline (day 0, before treatment), MV4;11 luc-FKBP12F36V
[5] = No treatment (day 4), 28 h after third and final treatment
[6] = Treatment #1 (day 1), 4 h after 35 mg kg^−1 IP
[7] = Treatment #2 (day 2), 4 h after 35 mg kg^−1 IP
[8] = Treatment #3 (day 3), 4 h after 35 mg kg^−1 IP

| Structure (SMILES) | Bioluminescent signal 4 h after each of the three administrations ([1]; 35 mg kg^−1 IP) | Total flux for each mouse [1, 4] | Total flux for each mouse [1, 5] | Total flux for each mouse [1, 6] | Total flux for each mouse [1, 7] | Total flux for each mouse [1, 8] | KRASG12V degradation, immunoblot [2] | Relative growth (luminescence values relative to day 0) ([3]; day 0, technical replicates) | Relative growth (luminescence values relative to day 0) ([3]; day 3, technical replicates) | Relative growth (luminescence values relative to day 0) ([3]; day 5, technical replicates) | Relative growth (luminescence values relative to day 0) ([3]; day 7, technical replicates) | Antiproliferation (relative growth) ([3]; Time 0 days) | Antiproliferation (relative growth) ([3]; Time 3 days) | Antiproliferation (relative growth) ([3]; Time 5 days) | Antiproliferation (relative growth) ([3]; Time 7 days) | Antiproliferative effects upon EWS/FLI degradation [3] | Bioluminescent signal 4 h after the first administration ([1]; 35 mg kg^−1 IP) | Duration of degradation ([1]; 35 mg kg^−1 IP, after the final administration) |
| --- | --- | --- | --- | --- | --- | --- | --- | --- | --- | --- | --- | --- | --- | --- | --- | --- | --- | --- |
| CC[C@H](C(=O)N1CCCC[C@H]1C(=O)O[C@H](CCc1ccc(OC)c(OC)c1)c1ccccc1OCC(=O)NCCCCCCOc1cccc2c1C(=O)N(C1CCC(=O)NC1=O)C2=O)c1cc(OC)c(OC)c(OC)c1 (stereo partly shown) [dTAG-13] | Consistent loss of bioluminescent signal | 4289000 and 889100 and 3230000 and 316100 and 985400 | 49160000 and 34070000 and 76150000 and 45320000 | 6613000 and 7583000 and 6309000 and 11170000 and 4709000 | 5587000 and 3752000 and 2682000 and 8076000 and 3987000 | 7807000 and 6324000 and 1630000 and 11780000 and 6875000 | – | – | – | – | – | – | – | – | – | – | – | – |
| CCC(C(=O)N1CCCCC1C(=O)OC(CCc1ccc(OC)c(OC)c1)c1ccccc1OCC(=O)NCCCCCCC(=O)NC(C(=O)N1CC(O)CC1C(=O)NC(C)c1ccc(-c2scnc2C)cc1)C(C)(C)C)c1cc(OC)c(OC)c(OC)c1 (stereo not shown) [dTAG^V-1-NEG] | – | – | – | – | – | – | not induced | 0.9945 and 0.95 and 1.001 and 0.9766 and 1.051 and 1.053 and 1.003 and 0.9709 | 5.114 and 5.468 and 5.612 and 5.24 and 5.293 and 5.6444 and 5.751 and 5.436 | 9.983 and 9.4493 and 9.47 and 9.104 and 8.952 and 10.1487 and 8.526 and 9.042 | 11.0059 and 11.6763 and 12.0315 and 12.3084 and 11.8629 and 11.627 and 12.7076 and 12.9032 | 0.9369 and 1.039 and 1.049 and 1.03 and 0.9405 and 1.006 and 0.9678 and 1.0315 | 6.723 and 6.994 and 7.2 and 7.295 and 6.686 and 6.901 and 6.814 and 7.587 | 15.6789 and 14.8903 and 15.2182 and 14.1831 and 15.4702 and 12.9669 and 13.0283 and 13.2307 | 17.0897 and 17.8515 and 16.9942 and 16.7495 and 17.7706 and 16.0177 and 15.7257 and 18.5474 | absent | – | – |
| CC[C@H](C(=O)N1CCCC[C@H]1C(=O)O[C@H](CCc1ccc(OC)c(OC)c1)c1ccccc1OCC(=O)NCCCCCCC(=O)N[C@H](C(=O)N1C[C@H](O)C[C@H]1C(=O)N[C@@H](C)c1ccc(-c2scnc2C)cc1)C(C)(C)C)c1cc(OC)c(OC)c(OC)c1 [dTAG^V-1] | Consistent loss of bioluminescent signal | 1893000 and 1330000 and 3116000 and 1809000 and 3338000 | 601200 and 13590000 and 24710000 and 1755000 and 24650000 | 4041000 and 2159000 and 3736000 and 2539000 and 5912000 | 3135000 and 1001000 and 2876000 and 2693000 and 9211000 | 4741000 and 1924000 and 4372000 and 3069000 and 6943000 | rapid KRAS^G12V degradation | 0.8696 and 1.038 (2×) and 1.097 and 0.9086 and 1.006 and 0.975 and 1.069 | 3.17 and 3.081 and 3.35 and 3.515 and 3.02 and 3.212 and 3.235 and 3.093 | 3.571 and 3.881 and 3.894 and 3.809 and 3.6579 and 3.634 and 3.713 and 3.678 | 4.1 and 3.846 and 4.015 and 4.459 and 4.182 and 3.984 and 3.963 and 4.228 | 1.031 and 1.006 and 0.9491 and 0.9896 and 1.023 and 0.9889 and 1.015 and 0.9988 | 3.562 and 3.604 and 3.659 and 3.498 and 3.439 and 4 and 3.9346 and 3.855 | 4.651 and 4.613 and 4.429 and 4.423 and 4.852 and 4.574 and 4.874 and 4.602 | 4.558 and 4.146 and 4.393 and 4.598 and 4.588 and 4.347 and 4.317 and 4.895 | Potent antiproliferative effects | Striking loss of bioluminescent signal | degradation evident 28 h after the final administration |
